Laboratory results published in paper PMC4791960 (European journal of medicinal chemistry, 2011).

Legend:
α7 nAChR = α7 nAChR (Rattus norvegicus, UniProt Q05941); test: [3H]-methyllycaconitine competition binding on rat hippocampal membranes; details: for interaction with α7 nAChR: in words; for Ki: read-out: α7 Ki, [3H]-methyllycaconitine, rat hippocampal membranes
α4β2 nAChR = α4β2 nAChR (Rattus norvegicus, UniProt P09483+P12390); test: [3H]-epibatidine competition binding on rat cortical membranes; details: tested at 5 μM, ± standard error
AChBP from Ac = test: Dissociation constants with AChBP from Aplysia californica; type: binding; details: compound 2 vs compound 3 (OH to OCH3)
AChBP from Bt = test: Dissociation constants with AChBP from Bulinus truncatus; type: binding; details: compound 2 vs compound 3 (OH to OCH3)
rat α7 nAChR = rat α7 nAChR (Rattus norvegicus, UniProt Q05941); test: Patch-clamp electrophysiology in rat α7 nAChR; type: cell-based
[1] = biological target: α3β4 ganglion-type nicotinic receptors (Homo sapiens, UniProt P30926+P32297); test: [3H]-epibatidine competition binding on SH-SY5Y cellular membranes
[2] = biological target: α1βγδ muscle-type nicotinic receptors (Homo sapiens, UniProt P02708+P07510+Q07001); test: [3H]-epibatidine competition binding on TE-671 cellular membranes; details: tested at 5 μM, ± standard error

Compound | interaction with α7 nAChR (α7 nAChR) | α4β2 percent inhibition of control radioligand binding (α4β2 nAChR) | Ki (α7 nAChR) | further results
c1ccc2oc(C3=NC4(CN3)CN3CCC4CC3)cc2c1 (stereo not shown) [Compound 3e, 2-Spiro[1,5-dihydroimidazole-4,3′-quinuclidine]-2-ylbenzo [b]furan] | do not demonstrate any interaction |  |  | 
5-(2-Methoxyphenyl)spiro[1,3-dihydro-1,4-diazepine-2,3′-quinuclidine]-7-ol [Compound 2b] |  | 7 ± 1% | 110 nM | 
5-(2-Furyl)spiro[1,3-dihydro-1,4-diazepine-2,3′-quinuclidine]-7-ol [Compound 2g] |  | 14 ± 3% | 150 nM | 
COc1ccc(/C=C2\CCCN=C2c2cccnc2)c(OC)c1 [Compound 2, 3-(2,4-dimethoxybenzilidene)-anabaseine] |  |  |  | loss in affinity vs compound 3, Ac (AChBP from Ac): 110 fold; decrease in Kd value (affinity) vs compound 3, Bt (AChBP from Bt): 2.5 fold
Oc1c(C2=NC3(CN2)CN2CCC3CC2)oc2ccccc12 (stereo not shown) [Compound 3a, 2-(3-Hydroxybenzofuran-2-yl)spiro[1,5-dihydroimidazole-4,3′-quinuclidine]] |  |  |  | EC50 (rat α7 nAChR): 600 ± 500 nM; Emax (rat α7 nAChR): 53 ± 4.4%
C1=NCC2(CN3CCC2CC3)NC=C1c1ccccc1 (stereo not shown) [Compound 2h, 6-phenylspiro[1,3-dihydro-1,4-diazepine-2,3′-quinuclidine]] | do not demonstrate any interaction |  |  | 
COc1cc(O)ccc1/C=C1\CCCN=C1c1cccnc1 [Compound 3, 2-Methoxy-4-OH benzylidene anabaseine, reference compound] |  |  |  | inhibition at 5 µM ([1]; read-out: α3β4 percent inhibition of control radioligand binding): 75 ± 1%
5-Phenylspiro[1,3-dihydro-1,4-diazepine-2,3′-quinuclidine]-7-ol [Compound 2a] |  | 15 ± 1% | 140 nM | 
5-(4-Methoxyphenyl)spiro[1,3-dihydro-1,4-diazepine-2,3′-quinuclidine]-7-ol [Compound 2d] |  | 42 ± 14% | 42 nM | α1βγδ percent inhibition of control radioligand binding [2]: 38 ± 5%; α3β4 percent inhibition of control radioligand binding ([1]; tested at 5 μM, [3H]-epibatidine, SH-SY5Y cellular membranes, ± standard error): 63 ± 0.4%
O=C1NCC2(CN3CCC2CC3)NC(=O)C1c1ccccc1 (stereo not shown) [Compound 2i, 6-Phenylspiro[1,4-diazepane-2,3′-quinuclidine]-5,7-dione] | do not demonstrate any interaction |  |  | 
c1ccc(C2=NC3(CN2)CN2CCC3CC2)cc1 (stereo not shown) [Compound 3c] | do not demonstrate any interaction |  |  | 
